Consider 1 compound from US8754047B2, “Peptide compositions and methods of use” (The Research Foundation for the State University of New York, priority 2008, dated 2014).

“And” between values parts separate entries of the source, which are not always exact repeats. Equal entries are not always repeated. Positions of bridges follow the written chain, without caps; N, C: chain ends. Residues, ends and D or L forms follow the SMILES beside them.

The test system of test [1] is SW480 human colon cancer cell xenografts. The experiment in a line: In vivo xenograft assay of tumor size, SCID mice. To be noted: 100 μg intraperitoneally once a day, 10 days, one mouse. How it is done:
Immunodeficient SCID mice (from Jackson Lab) were transplanted subcutaneously to their flank with 1.5 million SW480 human colon cancer cells. After the tumor size reached 120-150 mm^3, one mouse was treated with 100 μg YJB01 peptide injected intraperitoneally once a day, and the other one was treated with DMSO as a vehicle control. The tumor size was measured every two days (see FIG. 3A and FIG. 3B). The tumor volume was calculated based on its length (L) and width (W) using the formula Tumor volume=LW(L+W/2)0.56. (Rigas, B., and Kozoni, V., (2008) International Journal of Oncology, 32: 97-100). On the 10th day of treatment, the tumor volume was determined, the SCID mice were sacrificed and the tumors were excised and their weight was recorded (FIG. 3B).

For test [2], the system named is HT29 human colon cancer cells. Type of test: cell-based. Particulars: inhibits cell growth by 50% at 24 hours of exposure; MTT or cell Titer-Glo; read-out: IC50s, HT29. From the text: (FIG. 2A1-8, and FIG. 2B1-6).
On the technique in general: ATP-based viability assays read luminescence as a measure of living cells.

In test [3] the test system is SW480 human colon cancer cells. The experiment in a line: RONS levels by DCFDA probe, flow cytometry. Type of test: cell-based. To be noted: 1 hr, control 14.69. The method, then:
SW480 human colon cancer cells were grown following the instructions of American Type Culture Collection (ATCC, Monassas, Va.). The cells were treated with the test peptide YJB01 for 1 hr at either 20 μM or 100 μM. After treatment, cells were trypsinized and stained with DCFDA (10 μmol/L) for 30 minutes at 37° C. DCFDA fluorescence intensity was analyzed by FACSCaliber (BD Bioscience) following standard protocols. […] Thus, FIG. 6A indicates YJB01 induces RONS production in a concentration dependent manner.
The levels of RONS in SW480 and MCF-7 cells were evaluated using the methodology described in Rigas, B., and Y. Sun. (2008), using the general RONS probe, dichlorodihydrofluorescein diacetate (DCFDA). (Rigas, B., and Sun., Y., (2008), Br J Cancer 98:1157-1160).
SW480 human colon cancer cells were grown following the instructions of American Type Culture Collection (ATCC, Monassas, Va.). The cells were treated with the test peptide YJB01 for 1 hr at either 20 μM or 100 μM. After treatment, cells were trypsinized and stained with DCFDA (10 μmol/L) for 30 minutes at 37°. DCFDA fluorescence intensity was analyzed by FACSCaliber (BD Bioscience) following standard protocols. […] Thus, FIG. 6A indicates YJB01 induces RONS production in a concentration dependent manner.
(Flow cytometry measures light scatter and fluorescence of single cells or particles in a stream.)

Test [4] concerns BxPC-3 human pancreatic cancer cells. Particulars: 24 h. How it is done:
(§1) 10,000 HT29 or SW480 human colon cancer cells, BxPC-3 human pancreatic cancer cells, and MCF7 and MDA-MB-231 breast cancer cells were obtained from American Type Culture Collection (ATTC), Manassas, Va., and were seeded in separate 96-well plates. After treatment with various concentrations (6.25 μM, 12.5 μM, 25 μM, 50 μM, 100 μM, or 200 μM) of test peptide for 24 h, cells were stained with MTT (3-(4,5-Dimethyl-2-thiazolyl)-2,5-diphenyl-2H-tetrazolium bromide, from Sigma-Aldrich) following the instructions of the manufacturer. Before dissolving MTT in SDS, the HT29 and SW480 cells were photographed using a digital camera connected with a phase-contrast microscope. (FIG. 2A1-8, and FIG. 2B1-6). Cells that are alive convert MTT into formazan in their active mitochondria and appear dark purple; dead cells are not stained by MTT and appear colorless.
(§2) The IC50 is the concentration of the test agent that inhibits cell growth by 50% at 24 hours of exposure. IC50s were determined using the MTT assay or using the cell Titer-Glo method and following the instructions of the manufacturer ([…]). […] (Sun, Y., and Rigas, B., (2008), Cancer Res., 68(20): 8269-8277).

In test [5] the test system is MDA-MB-231 breast cancer cells. Particulars: 24 h. The method, then: as §1, §2
The test system of test [6] is MCF7 breast cancer cells. Particulars: 24 h. How it is done: as §1, §2
Test [7] relates to SW480 human colon cancer cells. Nature of the test: Annexin V-FITC flow cytometry for apoptotic cells, SW480. To be noted: 24 hrs, 0 μM to 200 μM. Format: cell-based. The method, then:
SW480 human colon cancer cells and MCF7 breast cancer cells were grown following the instructions of American Type Culture Collection (ATCC, Monassas, Va.). The cells were treated with the test peptides (YJB01, YJB05, or YJB06) for 24 hrs at concentrations ranging from 0 μM, to 200 μM. After treatment, cells were trypsinized and stained with Annexin V-FITC (100× dilution) for 15 minutes. Annexin V-FITC fluorescence intensities were analyzed by FACSCaliber (BD Bioscience) following standard protocols. Annexin V (+) cells are apoptotic cells.
When cells undergo apoptosis, the inner membrane phospholipid, phosphotidylserine (PS), flips to the outer membrane and can be recognized by the […]. The green FITC fluorescence can be determined by flow cytometry and thus Annexin V (+) cells are apoptotic cells.
In this study, SW480 human cancer cells and MCF7 breast cancer cells were grown following the instructions of American Type Culture Collection (ATCC, Monassas, Va.). The cells were treated with the test peptides (YJB01, YJB05, or YJB06) for 24 hrs at concentrations ranging from 0 μM, to 200 μM. After treatment cells were trypsinized and stained with Annexin V-FITC (100× dilution) for 15 minutes. Annexin V-FITC fluorescence intensities were analyzed by FACSCaliber (BD Bioscience) following standard protocols.

For test [8], the system named is SW480 human colon cancer cells. Nature of the test: Flow cytometry forward/side scatter, proportion of dead cells, SW480. Format: cell-based. To be noted: 200 μM, 24 hr. How it is done: SW480 human colon cancer cells and MCF7 breast cancer cells were grown following the instructions of American Type Culture Collection (ATCC, Monassas, Va.). The cells were treated with the test peptides (YJB01, YJB05, or YJB06) for 24 hrs at concentrations ranging from 0 μM, to 200 μM and subjected to flow cytometric analysis following standard protocols.
SW480 human colon cancer cells and MCF7 breast cancer cells were grown following the instructions of American Type Culture Collection (ATCC, Monassas, Va.). The cells were treated with the test peptides for 24 hrs at concentrations ranging from 0 μM, to 200 μM and subjected to flow cytometry analysis following standard protocols. […] The circumscribed (gated, outlined) areas in the figure indicate dead cells; dead cells generally have higher density (side scatter) and smaller size (forward scatter) than living cells.

Take `CC[C@H](C)[C@H](NC(=O)[C@H](CCCCN)NC(=O)[C@@H](NC(=O)[C@H](CCC(N)=O)NC(=O)[C@H](CCCNC(=N)N)NC(=O)[C@@H]1CCCN1C(=O)[C@H](CCCCN)NC(=O)[C@@H]1CSSC[C@H](NC(=O)[C@H](Cc2c[nH]c3ccccc23)NC(=O)[C@@H](NC(=O)[C@H](C)N)[C@@H](C)O)C(=O)NCC(=O)N2CCC[C@H]2C(=O)N1)[C@@H](C)CC)C(=O)N[C@@H](Cc1c[nH]c2ccccc12)C(=O)N[C@@H](Cc1ccccc1)C(=O)N[C@@H](CCC(N)=O)C(=O)N[C@@H](CC(N)=O)C(=O)N[C@@H](CCCNC(=N)N)C(=O)N[C@@H](CCCNC(=N)N)C(=O)N[C@@H](CCSC)C(=O)N[C@@H](CCCCN)C(=O)N[C@@H](Cc1c[nH]c2ccccc12)C(=O)N[C@@H](CCCCN)C(=O)N[C@@H](CCCCN)C(=O)O` [YJB01] (H-ATWCGPCKPRQIKIWFQNRRMKWKK-OH; disulfide 4-7; N-terminus and C-terminus assumed): in test [1], the “tumor growth at day 10 comparing with day 1” value is −0.04% and −4%. The IC50 in test [2] was 89 µM; in test [4], 109 µM; in test [5], 88 µM; in test [6] it was 68.9 µM. The “Geometric Mean of the fluorescence intensity of DCFDA” value in test [3] (20 μM) is recorded as 19.05; in test [3] (100 μM), 29.6. In addition, in test [7], the “apoptosis, Annexin V (+) cells, SW480” value is “cell killing effect”. Also, the “dead cells, SW480” value in test [8] worked out at 81.19%.
